The record followed here is article PMC6826623 (2019).

Holding throughout (assay): UV-Vis absorption titration at 316 nm
The subject of assay [1] is hTelo (DNA, G4) AGGGTTAGGGTTAGGGTTAGGG
The settings on record: 50 mM Tris-HCl.

Assay [2] has as its system 2HY9 (DNA, G4) AAAGGGTTAGGGTTAGGGTTAGGGAA
Conditions: 100 mM K+, 50 mM Tris-HCl, pH 7.4, hybrid G4, per base.

The subject of assay [3] is c-MYC (DNA, G4) TGGGGAGGGTGGGGAGGGTGGGGAAGG
Conditions: 100 mM K+, 50 mM Tris-HCl, pH 7.4, parallel G4, per base.

Consider `COc1ccc2c(c[n+](C)c3c4cc5c(cc4ccc23)OCO5)c1OC`, for which the Kb entry in assay [1] (100 mM K+, pH 7.4, 40% (w/v) PEG 200, parallel G4, per base) is “(3.5 ± 0.9) × 10^5 M^-1”; in assay [1] (100 mM Na+, pH 7.4, antiparallel G4, per base), “(2.69 ± 0.06) × 10^5 M^-1”; in assay [2], “(1.1 ± 0.1) × 10^5 M^-1”; in assay [3] it was “(1.0 ± 0.1) × 10^5 M^-1”.
